Data as given in patent US8796244B2, “Imidazopyridine derivatives as inhibitors of receptor tyrosine kinases” (Astex Therapeutics Ltd, priority 2008, dated 2014).
Structures can show the parent of a compound that is named as a salt. Values belong to the compound of their own block, whether it stands above or below them.

Legend:
VEGFR2 = VEGFR2 (Homo sapiens (Human), UniProt P35968); assay: VEGFR2 in vitro kinase inhibitory activity assay (TRF, Flt3 substrate); format: biochemical
[1] = tested on: parental wild-type Ba/F3 cells; assay: Ba/F3 (WT) cell proliferation assay (Alamar Blue); format: cell-based; conditions: Mus musculus; for inhibition at 10 µM / inhibition at 3 µM / inhibition at 1 µM: BaF3, read-out: BaF3 WT prolif, % inhibition; for IC50: BaF3, 72 hours, Alamar Blue, read-out: BaF3 WT prolif
[2] = tested on: LP-1 cell line (FGF-1/Heparin induced pERK); assay: Cell-based pERK ELISA, LP-1 cells; conditions: Homo sapiens; for IC50: LP-1, read-out: LP-1 pERK ELISA (μM)
Ba/F3-TEL-FGFR3 cells = assay: Ba/F3-TEL-FGFR3 cell proliferation assay (Alamar Blue); format: cell-based; conditions: 72 hours, Alamar Blue; read-out: BaF3-TEL-FGFR3 prolif

Chain of VEGFR2 (P35968 20-1356): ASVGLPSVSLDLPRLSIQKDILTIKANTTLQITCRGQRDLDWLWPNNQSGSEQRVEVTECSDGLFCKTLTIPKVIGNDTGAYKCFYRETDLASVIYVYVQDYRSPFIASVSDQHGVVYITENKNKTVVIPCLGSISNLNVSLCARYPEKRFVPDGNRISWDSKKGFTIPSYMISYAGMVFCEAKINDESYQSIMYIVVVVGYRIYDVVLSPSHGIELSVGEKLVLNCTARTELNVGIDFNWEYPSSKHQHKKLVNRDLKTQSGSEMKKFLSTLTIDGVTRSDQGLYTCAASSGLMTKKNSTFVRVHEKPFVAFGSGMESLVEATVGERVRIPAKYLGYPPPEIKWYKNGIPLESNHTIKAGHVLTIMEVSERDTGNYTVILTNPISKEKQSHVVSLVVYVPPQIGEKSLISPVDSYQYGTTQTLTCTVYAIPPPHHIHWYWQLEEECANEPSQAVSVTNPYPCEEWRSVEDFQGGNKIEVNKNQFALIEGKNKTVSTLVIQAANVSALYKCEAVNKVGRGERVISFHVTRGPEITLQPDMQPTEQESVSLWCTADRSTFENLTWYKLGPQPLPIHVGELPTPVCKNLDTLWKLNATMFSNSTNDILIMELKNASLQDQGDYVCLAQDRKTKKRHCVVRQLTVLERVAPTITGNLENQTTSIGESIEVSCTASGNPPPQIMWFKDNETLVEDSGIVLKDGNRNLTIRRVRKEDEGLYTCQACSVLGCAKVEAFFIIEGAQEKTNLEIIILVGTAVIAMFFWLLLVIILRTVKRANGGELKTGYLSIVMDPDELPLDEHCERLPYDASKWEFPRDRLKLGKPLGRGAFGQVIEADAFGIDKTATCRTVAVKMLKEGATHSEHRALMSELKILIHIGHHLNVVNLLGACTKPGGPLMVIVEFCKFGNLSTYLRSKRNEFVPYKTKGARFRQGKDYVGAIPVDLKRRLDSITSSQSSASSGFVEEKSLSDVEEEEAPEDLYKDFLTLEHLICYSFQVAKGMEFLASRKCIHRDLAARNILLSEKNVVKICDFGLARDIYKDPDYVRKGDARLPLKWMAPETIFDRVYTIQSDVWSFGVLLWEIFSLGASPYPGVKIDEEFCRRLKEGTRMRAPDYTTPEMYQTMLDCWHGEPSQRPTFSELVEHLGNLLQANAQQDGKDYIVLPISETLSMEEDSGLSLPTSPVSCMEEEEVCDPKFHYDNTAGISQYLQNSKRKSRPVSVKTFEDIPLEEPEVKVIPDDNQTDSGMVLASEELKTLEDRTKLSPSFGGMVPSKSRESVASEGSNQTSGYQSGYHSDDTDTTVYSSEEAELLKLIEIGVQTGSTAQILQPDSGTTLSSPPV

SMILES: CCCCOC(=O)Nc1nc(-c2ccn3c(-c4cccc(NC(=O)NCC(F)(F)F)c4)cnc3c2)ncc1F [Compound 314]
inhibition at 3 µM (VEGFR2; 1 h, at 3 μM, read-out: VEGFR2 % I): 62%
inhibition at 10 µM [1]: 21%

SMILES: Cc1ccc(NC(=O)NCC(F)(F)F)cc1-c1cnc2cc(C#Cc3cncn3C)ccn12 [Compound 326]
inhibition at 0.978 µM (VEGFR2; 1 h, at 0.978 μM, read-out: VEGFR2 % I): 45%
inhibition at 10 µM [1]: 18%

IC50 [2]: 0.14 µM
IC50 (Ba/F3-TEL-FGFR3 cells): 797 nM
SMILES: O=C(NCC(F)(F)F)Nc1cccc(-c2cnc3cc(-c4cccnn4)ccn23)c1 [Example 9, 1-[3-(7-Pyridazin-3-ylimidazo[1,2-a]pyridin-3-yl)phenyl]-3-(2,2,2-trifluoroethyl)urea hydrochloride]
IC50 [1]: 6400 nM

IC50 [2]: 0.014 µM
IC50 (Ba/F3-TEL-FGFR3 cells): 12 nM
SMILES: CC(C)N1CC(n2cc(-c3ccn4c(-c5cccc(NC(=O)NCC(F)(F)F)c5)cnc4c3)cn2)C1 [Example 32, 1-(3-{7-[1-(1-Isopropylazetidin-3-yl)-1H-pyrazol-4-yl]imidazo[1,2-a]pyridin-3-yl}phenyl)-3-(2,2,2-trifluoroethyl)-urea]
IC50 [1]: 670 nM

SMILES: Nc1cc(Cl)cnc1-c1ccn2c(-c3cccc(NC(=O)NCC(F)(F)F)c3)cnc2c1 [Example 146, 1-{3-[7-(3-Amino-5-chloro-pyridin-2-yl)-imidazo[1,2-a]pyridin-3-yl]-phenyl}-3-(2,2,2-trifluoro-ethyl)-urea]
inhibition at 1 µM (VEGFR2; 1 h, read-out: VEGFR2 % I): 51%
inhibition at 10 µM [1]: 1.2%

SMILES: CNc1nc(-c2ccn3c(-c4cccc(NC(=O)NCC(F)(F)F)c4)cnc3c2)ncc1F [Example 162]
inhibition at 1 µM (VEGFR2; 1 h, read-out: VEGFR2 % I): 59%
IC50 [2]: 0.091 µM
inhibition at 3 µM [1]: 37%

SMILES: CCNc1nc(-c2ccn3c(-c4cccc(NC(=O)NCC(F)(F)F)c4)cnc3c2)ncc1F [Example 177]
IC50 (VEGFR2): > 1000 nM
inhibition at 10 µM ([2]; LP-1, read-out: LP-1 pERK ELISA, % inhibition): 47%
inhibition at 10 µM [1]: 16%

SMILES: Nc1ncc(C(F)(F)F)c(-c2ccn3c(-c4cccc(NC(=O)NCC(F)(F)F)c4)cnc3c2)n1 [Example 179]
IC50 (VEGFR2): > 10000 nM
inhibition at 1 µM [1]: 22%

SMILES: O=C(NCC(F)(F)F)Nc1cccc(-c2cnc3cc(-c4nc(NC5CCC5)ncc4C(F)(F)F)ccn23)c1 [Example 191]
IC50 (VEGFR2): > 30000 nM
inhibition at 1 µM [1]: 18%

SMILES: O=C(NCC(F)(F)F)Nc1cccc(-c2cnc3cc(-c4ncc(C(F)(F)F)c(NC5CCC5)n4)ccn23)c1 [Example 192]
IC50 (VEGFR2): > 3000 nM
inhibition at 3 µM [1]: 49%

inhibition at 0.89 µM (VEGFR2; 1 h, at 0.89 μM, read-out: VEGFR2 % I): 36%
inhibition at 3.11 µM (VEGFR2; 1 h, at 3.11 μM, read-out: VEGFR2 % I): 48%
SMILES: CC(C)(C)OC(=O)NC1CN(c2ccnc(-c3ccn4c(-c5cccc(NC(=O)NCC(F)(F)F)c5)cnc4c3)n2)C1 [Example 193]
IC50 [1]: 1500 nM

SMILES: Cc1nc(-c2ccn3c(-c4cccc(NC(=O)NCC(F)(F)F)c4)cnc3c2)cc(N(C)C)n1 [Example 198]
IC50 (Ba/F3-TEL-FGFR3 cells): 270 nM
inhibition at 3 µM [1]: 39%

SMILES: Nc1cc(-c2ccn3c(-c4cccc(NC(=O)NCC(F)(F)F)c4)cnc3c2)nc(C(F)(F)F)n1 [Example 210]
inhibition at 0.1 µM (VEGFR2; 1 h, at 0.1 μM, read-out: VEGFR2 % I): 42%
inhibition at 3 µM [1]: 13%

SMILES: CC(=O)N1CC(n2cc(-c3ccn4c(-c5cccc(NC(=O)NCC(F)(F)F)c5)cnc4c3)cn2)C1 [Example 212]
IC50 (VEGFR2): > 300 nM
inhibition at 3 µM [1]: 10%

SMILES: O=C(NCC(F)(F)F)Nc1cccc(-c2cnc3cc(-c4ccc(C(=O)N5CCOCC5)cn4)ccn23)c1 [Example 223]
inhibition at 0.3 µM (VEGFR2; 1 h, read-out: VEGFR2 % I): 39%
inhibition at 3 µM [1]: 45%

inhibition at 3.1 µM (VEGFR2; 1 h, at 3.1 μM, read-out: VEGFR2 % I): 62%
SMILES: CC(C)c1nccc(-c2ccn3c(-c4cccc(NC(=O)NCC(F)(F)F)c4)cnc3c2)n1 [Example 233]
IC50 [1]: 14.9 nM

SMILES: Cc1nc(-c2ccn3c(-c4cccc(NC(=O)NCC(F)(F)F)c4)cnc3c2)cc(C(F)(F)F)n1 [Example 238]
inhibition at 0.31 µM (VEGFR2; 1 h, at 0.31 μM, read-out: VEGFR2 % I): 40%
inhibition at 10 µM [1]: 41%

SMILES: CCNC(=O)Nc1cccc(-c2cnc3cc(-c4ccnc(C(F)(F)F)n4)ccn23)c1 [Example 239]
inhibition at 1 µM (VEGFR2; 1 h, read-out: VEGFR2 % I): 49%
inhibition at 3 µM [1]: 26%

inhibition at 0.3 µM (VEGFR2; 1 h, read-out: VEGFR2 % I): 43%
SMILES: Nc1nc(-c2ccn3c(-c4cccc(NC(=O)NCC(F)(F)F)c4)cnc3c2)cc(C(F)(F)F)n1 [Example 245]
IC50 [1]: 2200 nM

inhibition at 0.3 µM (VEGFR2; 1 h, read-out: VEGFR2 % I): 45%
SMILES: CCN(CC)CCc1nnc(-c2ccn3c(-c4cccc(NC(=O)NCC(F)(F)F)c4)cnc3c2)s1 [Example 246]
IC50 [1]: 1000 nM
